# Reference: ChEMBL document CHEMBL5316337, “Critical Role of Position 10 Residue in the Polymyxin Antimicrobial Activity” (J Med Chem, 2023)
# Columns and labels:
# Format in all cases: functional
# [1] = system: Acinetobacter baumannii; test: Antibacterial activity against polymyxin-susceptible Acinetobacter baumannii ATCC 17978 clinical isolates assessed as reduction in bacterial growth by broth microdilution method
# [2] = system: Pseudomonas aeruginosa; test: Antibacterial activity against polymyxin-susceptible Pseudomonas aeruginosa ATCC 27853 clinical isolates assessed as reduction in bacterial growth by broth microdilution method
# [3] = system: Acinetobacter baumannii; test: Antibacterial activity against Carbapenem-resistant Acinetobacter baumannii FADD1-AB034 clinical isolates assessed as reduction in bacterial growth by broth microdilution method
# [4] = system: Klebsiella pneumoniae; test: Antibacterial activity against Carbapenem-resistant Klebsiella pneumoniae FADD1-KP032 clinical isolates assessed as reduction in bacterial growth by broth microdilution method
# [5] = system: Pseudomonas aeruginosa; test: Antibacterial activity against polymyxin-susceptible Pseudomonas aeruginosa FADD1-PA038 clinical isolates assessed as reduction in bacterial growth by broth microdilution method
# [6] = system: Pseudomonas aeruginosa; test: Antibacterial activity against polymyxin-susceptible Pseudomonas aeruginosa FADD1-PA025 clinical isolates assessed as reduction in bacterial growth by broth microdilution method
# [7] = system: Pseudomonas aeruginosa; test: Antibacterial activity against Carbapenem-resistant Pseudomonas aeruginosa FADD1-PA022 clinical isolates assessed as reduction in bacterial growth by broth microdilution method
# [8] = system: Pseudomonas aeruginosa; test: Antibacterial activity against Carbapenem-resistant Pseudomonas aeruginosa FADD1-PA001 clinical isolates assessed as reduction in bacterial growth by broth microdilution method
# [9] = system: Enterobacter cloacae; test: Antibacterial activity against polymyxin-susceptible Enterobacter cloacae FADD1-EC001 clinical isolates assessed as reduction in bacterial growth by broth microdilution method
# [10] = system: Enterobacter cloacae; test: Antibacterial activity against polymyxin-susceptible Enterobacter cloacae FADD1-EC006 clinical isolates assessed as reduction in bacterial growth by broth microdilution method
# [11] = system: Acinetobacter baumannii; test: Antibacterial activity against Carbapenem-resistant Acinetobacter baumannii FADD1-AB030 clinical isolates assessed as reduction in bacterial growth by broth microdilution method
# [12] = system: Klebsiella pneumoniae; test: Antibacterial activity against Carbapenem-resistant Klebsiella pneumoniae FADD1-KP022 clinical isolates assessed as reduction in bacterial growth by broth microdilution method
# [13] = system: Klebsiella pneumoniae; test: Antibacterial activity against Carbapenem-resistant Klebsiella pneumoniae BM1 clinical isolates assessed as reduction in bacterial growth by broth microdilution method
# [14] = system: Klebsiella pneumoniae; test: Antibacterial activity against polymyxin-susceptible Klebsiella pneumoniae ATCC 700721 clinical isolates assessed as reduction in bacterial growth by broth microdilution method
# [15] = system: Acinetobacter baumannii; test: Antibacterial activity against polymyxin-susceptible Acinetobacter baumannii ATCC 19606 clinical isolates assessed as reduction in bacterial growth by broth microdilution method
# [16] = system: Enterobacter cloacae; test: Antibacterial activity against polymyxin-susceptible Enterobacter cloacae FADD1-EC003 clinical isolates assessed as reduction in bacterial growth by broth microdilution method
# [17] = system: Klebsiella pneumoniae; test: Antibacterial activity against Carbapenem-resistant Klebsiella pneumoniae FADD1-KP065 clinical isolates assessed as reduction in bacterial growth by broth microdilution method
SMILES,MIC [1],MIC [2],MIC [3],MIC [4],MIC [5],MIC [6],MIC [7],MIC [8],MIC [9],MIC [10],MIC [11],MIC [12],MIC [13],MIC [14],MIC [15],MIC [16],MIC [17]
CC[C@H](C)CCCCC(=O)N[C@@H](CCN)C(=O)N[C@H](C(=O)N[C@@H](CCN)C(=O)N[C@H]1CCNC(=O)[C@H](CC(N)=O)NC(=O)[C@H](CCN)NC(=O)[C@H](CCN)NC(=O)[C@H](CC(C)C)NC(=O)[C@@H](Cc2ccccc2)NC(=O)[C@H](CCN)NC1=O)[C@@H](C)O,16 µg/mL,32 µg/mL,> 32 µg/mL,> 32 µg/mL,> 32 µg/mL,4 µg/mL,1 µg/mL,> 32 µg/mL,> 32 µg/mL,> 32 µg/mL,> 32 µg/mL,8 µg/mL,> 32 µg/mL,> 32 µg/mL,> 32 µg/mL,32 µg/mL,8 µg/mL
CC[C@H](C)CCCCC(=O)N[C@@H](CCN)C(=O)N[C@H](C(=O)N[C@@H](CCN)C(=O)N[C@H]1CCNC(=O)[C@H](C(C)N=[N+]=[N-])NC(=O)[C@H](CCN)NC(=O)[C@H](CCN)NC(=O)[C@H](CC(C)C)NC(=O)[C@@H](Cc2ccccc2)NC(=O)[C@H](CCN)NC1=O)[C@@H](C)O (some centres undefined),2 µg/mL,1 µg/mL,2 µg/mL,2 µg/mL,4 µg/mL,1 µg/mL,1 µg/mL,1 µg/mL,8 µg/mL,32 µg/mL,0.5 µg/mL,1 µg/mL,2 µg/mL,4 µg/mL,2 µg/mL,4 µg/mL,1 µg/mL
CC[C@H](C)CCCCC(=O)N[C@@H](CCN)C(=O)N[C@H](C(=O)N[C@@H](CCN)C(=O)N[C@H]1CCNC(=O)[C@H](C(C)C)NC(=O)[C@H](CCN)NC(=O)[C@H](CCN)NC(=O)[C@H](CC(C)C)NC(=O)[C@@H](Cc2ccccc2)NC(=O)[C@H](CCN)NC1=O)[C@@H](C)O,4 µg/mL,1 µg/mL,4 µg/mL,1 µg/mL,2 µg/mL,1 µg/mL,1 µg/mL,1 µg/mL,4 µg/mL,16 µg/mL,2 µg/mL,0.25 µg/mL,1 µg/mL,8 µg/mL,4 µg/mL,2 µg/mL,1 µg/mL
CC[C@H](C)CCCCC(=O)N[C@@H](CCN)C(=O)N[C@H](C(=O)N[C@@H](CCN)C(=O)N[C@H]1CCNC(=O)[C@H](COC)NC(=O)[C@H](CCN)NC(=O)[C@H](CCN)NC(=O)[C@H](CC(C)C)NC(=O)[C@@H](Cc2ccccc2)NC(=O)[C@H](CCN)NC1=O)[C@@H](C)O,2 µg/mL,0.5 µg/mL,4 µg/mL,2 µg/mL,8 µg/mL,2 µg/mL,1 µg/mL,2 µg/mL,8 µg/mL,32 µg/mL,1 µg/mL,0.25 µg/mL,1 µg/mL,4 µg/mL,8 µg/mL,8 µg/mL,1 µg/mL
CC[C@H](C)CCCCC(=O)N[C@@H](CCN)C(=O)N[C@H](C(=O)N[C@@H](CCN)C(=O)N[C@H]1CCNC(=O)[C@H](C(C)(C)C)NC(=O)[C@H](CCN)NC(=O)[C@H](CCN)NC(=O)[C@H](CC(C)C)NC(=O)[C@@H](Cc2ccccc2)NC(=O)[C@H](CCN)NC1=O)[C@@H](C)O,4 µg/mL,2 µg/mL,4 µg/mL,2 µg/mL,4 µg/mL,2 µg/mL,2 µg/mL,2 µg/mL,8 µg/mL,8 µg/mL,4 µg/mL,1 µg/mL,8 µg/mL,8 µg/mL,8 µg/mL,4 µg/mL,4 µg/mL
CC[C@H](C)CCCCC(=O)N[C@@H](CCN)C(=O)N[C@H](C(=O)N[C@@H](CCN)C(=O)N[C@H]1CCNC(=O)[C@@H]([C@H](C)O)NC(=O)[C@H](CCN)NC(=O)[C@H](CCN)NC(=O)[C@H](CC(C)C)NC(=O)[C@@H](Cc2ccccc2)NC(=O)[C@H](CCN)NC1=O)[C@@H](C)O,4 µg/mL,32 µg/mL,> 32 µg/mL,> 32 µg/mL,> 32 µg/mL,16 µg/mL,2 µg/mL,> 32 µg/mL,> 32 µg/mL,> 32 µg/mL,> 32 µg/mL,> 32 µg/mL,> 32 µg/mL,> 32 µg/mL,> 32 µg/mL,> 32 µg/mL,> 32 µg/mL
CC[C@H](C)CCCCC(=O)N[C@@H](CCN)C(=O)N[C@H](C(=O)N[C@@H](CCN)C(=O)N[C@H]1CCNC(=O)[C@H](CS)NC(=O)[C@H](CCN)NC(=O)[C@H](CCN)NC(=O)[C@H](CC(C)C)NC(=O)[C@@H](Cc2ccccc2)NC(=O)[C@H](CCN)NC1=O)[C@@H](C)O,16 µg/mL,4 µg/mL,16 µg/mL,16 µg/mL,8 µg/mL,8 µg/mL,4 µg/mL,8 µg/mL,16 µg/mL,16 µg/mL,32 µg/mL,4 µg/mL,16 µg/mL,16 µg/mL,16 µg/mL,16 µg/mL,4 µg/mL
CC[C@H](C)CCCCC(=O)N[C@@H](CCN)C(=O)N[C@H](C(=O)N[C@@H](CCN)C(=O)N[C@H]1CCNC(=O)[C@H]([C@@H](C)OC)NC(=O)[C@H](CCN)NC(=O)[C@H](CCN)NC(=O)[C@H](CC(C)C)NC(=O)[C@@H](Cc2ccccc2)NC(=O)[C@H](CCN)NC1=O)[C@@H](C)O,8 µg/mL,1 µg/mL,4 µg/mL,2 µg/mL,16 µg/mL,2 µg/mL,1 µg/mL,8 µg/mL,8 µg/mL,32 µg/mL,8 µg/mL,1 µg/mL,8 µg/mL,8 µg/mL,16 µg/mL,4 µg/mL,8 µg/mL
CC[C@H](C)CCCCC(=O)N[C@@H](CCN)C(=O)N[C@H](C(=O)N[C@@H](CCN)C(=O)N[C@H]1CCNC(=O)[C@H](CCO)NC(=O)[C@H](CCN)NC(=O)[C@H](CCN)NC(=O)[C@H](CC(C)C)NC(=O)[C@@H](Cc2ccccc2)NC(=O)[C@H](CCN)NC1=O)[C@@H](C)O,2 µg/mL,4 µg/mL,4 µg/mL,2 µg/mL,8 µg/mL,2 µg/mL,0.5 µg/mL,32 µg/mL,8 µg/mL,> 32 µg/mL,32 µg/mL,0.5 µg/mL,4 µg/mL,2 µg/mL,> 32 µg/mL,2 µg/mL,2 µg/mL
C/C=C1/NC(=O)[C@H](CCN)NC(=O)[C@H](CCN)NC(=O)[C@H](CC(C)C)NC(=O)[C@@H](Cc2ccccc2)NC(=O)[C@H](CCN)NC(=O)[C@@H](NC(=O)[C@H](CCN)NC(=O)[C@@H](NC(=O)[C@H](CCN)NC(=O)CCCC[C@@H](C)CC)[C@@H](C)O)CCNC1=O,1 µg/mL,2 µg/mL,2 µg/mL,8 µg/mL,16 µg/mL,2 µg/mL,1 µg/mL,4 µg/mL,> 32 µg/mL,> 32 µg/mL,2 µg/mL,2 µg/mL,8 µg/mL,16 µg/mL,4 µg/mL,> 32 µg/mL,4 µg/mL
CC[C@H](C)CCCCC(=O)N[C@@H](CCN)C(=O)N[C@H](C(=O)N[C@@H](CCN)C(=O)N[C@H]1CCNC(=O)[C@H](C(C)(C)O)NC(=O)[C@H](CCN)NC(=O)[C@H](CCN)NC(=O)[C@H](CC(C)C)NC(=O)[C@@H](Cc2ccccc2)NC(=O)[C@H](CCN)NC1=O)[C@@H](C)O,8 µg/mL,1 µg/mL,8 µg/mL,2 µg/mL,8 µg/mL,2 µg/mL,1 µg/mL,2 µg/mL,16 µg/mL,16 µg/mL,8 µg/mL,1 µg/mL,1 µg/mL,4 µg/mL,8 µg/mL,4 µg/mL,1 µg/mL
CC[C@H](C)CCCCC(=O)N[C@@H](CCN)C(=O)N[C@H](C(=O)N[C@@H](CCN)C(=O)N[C@H]1CCNC(=O)CNC(=O)[C@H](CCN)NC(=O)[C@H](CCN)NC(=O)[C@H](CC(C)C)NC(=O)[C@@H](Cc2ccccc2)NC(=O)[C@H](CCN)NC1=O)[C@@H](C)O,4 µg/mL,0.5 µg/mL,32 µg/mL,4 µg/mL,8 µg/mL,2 µg/mL,0.5 µg/mL,1 µg/mL,4 µg/mL,4 µg/mL,> 32 µg/mL,1 µg/mL,> 32 µg/mL,8 µg/mL,> 32 µg/mL,4 µg/mL,0.5 µg/mL
